Data from PubChem BioAssay AID2005 (Sanford-Burnham Center for Chemical Genomics, 2009).
Calls of active or inactive are those of the source.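 Rule for the calls: active = plate Z score at or below -3, or inhibition of at least 30% at 20 µM; inactive = the rest.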

Experiment: compounds lowering EGFP fluorescence in F442A cells, dose response, counter-screen for p/CIP destabilizer project (AID 2005);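 note: cells express EGFP alone from a CMV promoter as a counter screen for p/CIP-EGFP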
Details: F442A EGFP cells, EGFP fluorescence, 16 h, stronger effect = higher value

SMILES: CC(=O)N/C(=C/c1ccc2c(c1)OCO2)C(=O)NCCCO
- inhibition (EGFP decrease, at 10 µM): 1.2%
- inhibition (at 20 µM): 2% (inactive)

SMILES: CCCCS(=O)(=O)Nc1ccc2c(c1)ncn2C1CCCCC1
- inhibition (EGFP decrease, at 10 µM): 27.7%
- inhibition (at 20 µM): 13.8% (inactive)

SMILES: COc1ccc(S(=O)(=O)Nc2cccc(-n3cnnn3)c2)cc1OC
- inhibition (EGFP decrease, at 10 µM): 6.4%
- inhibition (at 20 µM): 6.9% (inactive)

SMILES: O=C(NCc1ccc(Cl)cc1)C1CCN(S(=O)(=O)c2cccs2)CC1
- inhibition (EGFP decrease, at 10 µM): 6%
- inhibition (at 20 µM): 6.7% (inactive)

SMILES: COc1ccc(CNCCCSc2ncccn2)c(OC)c1
- inhibition (EGFP decrease, at 10 µM): 11.1%
- inhibition (at 20 µM): 16.3% (inactive)

SMILES: Cc1ccc(CNC(=O)C2CCCCN2S(=O)(=O)c2ccccc2)cc1 (stereo not drawn)
- inhibition (EGFP decrease, at 10 µM): -17.4%
- inhibition (at 20 µM): 4.6% (inactive)

SMILES: O=C(COc1ccc(F)cc1)Nc1nc2c(s1)CCCC2
- inhibition (EGFP decrease, at 10 µM): 26.7%
- inhibition (at 20 µM): 24% (inactive)

SMILES: O=C(CCCOc1ccccc1)Nc1nncs1
- inhibition (EGFP decrease, at 10 µM): -15.9%
- inhibition (at 20 µM): 22.7% (inactive)

SMILES: NC(=O)C1CCCCc2c1[nH]c1ccc(Cl)cc21 (stereo not drawn)
- inhibition (EGFP decrease, at 10 µM): 16.2%
- inhibition (at 20 µM): 7.6% (inactive)

SMILES: Cc1cc(C)n(CC(O)COc2ccc(C(C)(C)C)cc2)n1 (stereo not drawn)
- inhibition (EGFP decrease, at 10 µM): -4.8%
- inhibition (at 20 µM): 7.7% (inactive)

SMILES: O=C(Nc1nc2nc(-c3ccccc3)cc(-c3ccccc3)n2n1)c1ccco1
- inhibition (EGFP decrease, at 10 µM): 4.8%
- inhibition (at 20 µM): 5.5% (inactive)

SMILES: C=CCN(c1ccccc1)S(=O)(=O)c1ccc(Cl)c(C(=O)OCC(=O)NCCCN2CCCC2=O)c1
- inhibition (EGFP decrease, at 10 µM): 16.8%
- inhibition (at 20 µM): 14.2% (inactive)

SMILES: O=c1c2ccccc2nc(-c2ccccc2)n1-c1ccncc1
- inhibition (EGFP decrease, at 10 µM): -29.4%
- inhibition (at 20 µM): 24.7% (inactive)

SMILES: COc1cc(Cl)c(C)cc1NC(=O)CSc1ccc(NC(C)=O)cc1
- inhibition (EGFP decrease, at 10 µM): 20.2%
- inhibition (at 20 µM): 10.2% (inactive)

SMILES: CC(C)C(=O)Nc1nnc(SCC(=O)NCc2cccs2)s1
- inhibition (EGFP decrease, at 10 µM): 11.1%
- inhibition (at 20 µM): 12% (inactive)

SMILES: COc1ccc(C(NC(=O)CC(C)C)c2c(O)ccc3ccccc23)cc1 (stereo not drawn)
- inhibition (EGFP decrease, at 10 µM): 18.1%
- inhibition (at 20 µM): 5.2% (inactive)

SMILES: Cn1ncnc2c(=O)n(C)c(=O)nc1-2
- inhibition (EGFP decrease, at 10 µM): 49.3%
- inhibition (at 20 µM): 61.7%

SMILES: O=C(NC1=NCCS1)c1ccc(N2CCCC2=O)cc1
- inhibition (EGFP decrease, at 10 µM): -10.3%
- inhibition (at 20 µM): -1.1% (inactive)

SMILES: Cc1cc(C)n2nc(SCC(=O)c3ccccc3)nc2n1
- inhibition (EGFP decrease, at 10 µM): 23.7%
- inhibition (at 20 µM): 31%

SMILES: CC(=O)c1ccc(NC(=O)NNS(=O)(=O)c2ccc([N+](=O)[O-])cc2)cc1
- inhibition (EGFP decrease, at 10 µM): 16.8%
- inhibition (at 20 µM): 22.1% (inactive)

SMILES: O=C(CNC(=O)c1ccco1)NCC(=O)OCc1ccc(Cl)cc1Cl
- inhibition (EGFP decrease, at 10 µM): -15.3%
- inhibition (at 20 µM): 6% (inactive)

SMILES: CCC(=O)Nc1ccccc1Oc1ccccc1
- inhibition (EGFP decrease, at 10 µM): 12.2%
- inhibition (at 20 µM): 19.7% (inactive)

SMILES: COc1ccccc1NC(=O)CSc1nncn1-c1cccnc1
- inhibition (EGFP decrease, at 10 µM): 4.7%
- inhibition (at 20 µM): 8% (inactive)

SMILES: CCN1CCN(CCNC(=O)Nc2ccc([N+](=O)[O-])cc2)CC1
- inhibition (EGFP decrease, at 10 µM): -0.7%
- inhibition (at 20 µM): 6.6% (inactive)

SMILES: CCCC(=O)c1c[nH]c(C(=O)NCCc2ccccn2)c1
- inhibition (EGFP decrease, at 10 µM): 20.5%
- inhibition (at 20 µM): 29.1% (inactive)

SMILES: Cc1ccccc1OC(C)C(=O)Nc1ccc(S(=O)(=O)Nc2nccs2)cc1 (stereo not drawn)
- inhibition (EGFP decrease, at 10 µM): -2.8%
- inhibition (at 20 µM): -1.1% (inactive)

SMILES: CCS(=O)(=O)N1CCN(c2nc(-c3ccccc3)cs2)CC1
- inhibition (EGFP decrease, at 10 µM): 13.7%
- inhibition (at 20 µM): 15.1% (inactive)

SMILES: CC(=O)Nc1ccc(S(=O)(=O)NCc2cn3ccsc3n2)cc1
- inhibition (EGFP decrease, at 10 µM): 8.3%
- inhibition (at 20 µM): 1% (inactive)

SMILES: CC(C)CC(=O)Nc1ncnc2c1C(=O)CC(C)(C)C2
- inhibition (EGFP decrease, at 10 µM): 11.5%
- inhibition (at 20 µM): 12.2% (inactive)

SMILES: CN1CCN(C(=O)c2cccc(S(=O)(=O)N3CCCCC3)c2)CC1
- inhibition (EGFP decrease, at 10 µM): 10.5%
- inhibition (at 20 µM): 20.5% (inactive)

SMILES: Cc1ccc(N2C(=O)N(CC(=O)Nc3ccc(C)cc3C)C(=O)C2C)cc1 (stereo not drawn)
- inhibition (EGFP decrease, at 10 µM): 28.1%
- inhibition (at 20 µM): 22% (inactive)

SMILES: COc1cc(OC)cc(C(=O)NCC(=O)OCC(=O)N2CCc3ccccc32)c1
- inhibition (EGFP decrease, at 10 µM): 8.9%
- inhibition (at 20 µM): 20.7% (inactive)

SMILES: Cc1ccc(S(=O)(=O)Oc2ccc(/C=N/NC(=O)c3nn(C)cc3Cl)cc2)cc1
- inhibition (EGFP decrease, at 10 µM): 17.3%
- inhibition (at 20 µM): 17.2% (inactive)

SMILES: CCCCC(=O)NNC(=S)NC(=O)CCC
- inhibition (EGFP decrease, at 10 µM): 8.3%
- inhibition (at 20 µM): 15.7% (inactive)

SMILES: COc1ccc(OC)c(NS(=O)(=O)c2c(C(=O)N3CCCCCC3)c(C)n(C)c2C)c1
- inhibition (EGFP decrease, at 10 µM): 32.8%
- inhibition (at 20 µM): 15.9% (inactive)

SMILES: CCN1C(=O)OC2(CCCCC2)C1(C)O (stereo not drawn)
- inhibition (EGFP decrease, at 10 µM): -1.9%
- inhibition (at 20 µM): 9% (inactive)

SMILES: CS(=O)(=O)N(CC(=O)N1CCN(Cc2ccc3c(c2)OCO3)CC1)c1ccc2c(c1)OCO2
- inhibition (EGFP decrease, at 10 µM): 15.1%
- inhibition (at 20 µM): -15.1% (inactive)

SMILES: Cc1ccccc1NC(=O)C1CCCN(C(=O)Nc2ccc(F)cc2)C1 (stereo not drawn)
- inhibition (EGFP decrease, at 10 µM): 12.3%
- inhibition (at 20 µM): 3.2% (inactive)

SMILES: CCN1CCN(Cc2ccc(NC(=O)c3cc(NC(=O)c4cncc(-c5ccc(C#N)cc5)c4)cc(OC)c3)cc2C(F)(F)F)CC1
- inhibition (EGFP decrease, at 10 µM): 3%
- inhibition (at 20 µM): 11.7% (inactive)
